Patent US20240208992A1, “MACROCYCLES AS CFTR MODULATORS” (Idorsia Pharmaceuticals Ltd, priority 2021, published 2024)
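Note: U2OS cells co-expressing ProLink-tagged F508del-CFTR and a membrane-anchored enzyme acceptor, where more surface CFTR restores β-galactosidase activity measured by chemiluminescence.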

Each compound was assayed against human F508del-CFTR (Homo sapiens, UniProt P13569, DEL508-508) (assay: F508del-CFTR cell surface expression (corrector activity), DiscoveRx ß-galactosidase complementation chemiluminescence assay in recombinant U2OS cell line). Settings: EC50, F508del-CFTR cell surface expression, U2OS cell line, 16h compound incubation; geomean values.
Sequence of human F508del-CFTR (P13569 with tags, fused parts or gaps DEL508-508): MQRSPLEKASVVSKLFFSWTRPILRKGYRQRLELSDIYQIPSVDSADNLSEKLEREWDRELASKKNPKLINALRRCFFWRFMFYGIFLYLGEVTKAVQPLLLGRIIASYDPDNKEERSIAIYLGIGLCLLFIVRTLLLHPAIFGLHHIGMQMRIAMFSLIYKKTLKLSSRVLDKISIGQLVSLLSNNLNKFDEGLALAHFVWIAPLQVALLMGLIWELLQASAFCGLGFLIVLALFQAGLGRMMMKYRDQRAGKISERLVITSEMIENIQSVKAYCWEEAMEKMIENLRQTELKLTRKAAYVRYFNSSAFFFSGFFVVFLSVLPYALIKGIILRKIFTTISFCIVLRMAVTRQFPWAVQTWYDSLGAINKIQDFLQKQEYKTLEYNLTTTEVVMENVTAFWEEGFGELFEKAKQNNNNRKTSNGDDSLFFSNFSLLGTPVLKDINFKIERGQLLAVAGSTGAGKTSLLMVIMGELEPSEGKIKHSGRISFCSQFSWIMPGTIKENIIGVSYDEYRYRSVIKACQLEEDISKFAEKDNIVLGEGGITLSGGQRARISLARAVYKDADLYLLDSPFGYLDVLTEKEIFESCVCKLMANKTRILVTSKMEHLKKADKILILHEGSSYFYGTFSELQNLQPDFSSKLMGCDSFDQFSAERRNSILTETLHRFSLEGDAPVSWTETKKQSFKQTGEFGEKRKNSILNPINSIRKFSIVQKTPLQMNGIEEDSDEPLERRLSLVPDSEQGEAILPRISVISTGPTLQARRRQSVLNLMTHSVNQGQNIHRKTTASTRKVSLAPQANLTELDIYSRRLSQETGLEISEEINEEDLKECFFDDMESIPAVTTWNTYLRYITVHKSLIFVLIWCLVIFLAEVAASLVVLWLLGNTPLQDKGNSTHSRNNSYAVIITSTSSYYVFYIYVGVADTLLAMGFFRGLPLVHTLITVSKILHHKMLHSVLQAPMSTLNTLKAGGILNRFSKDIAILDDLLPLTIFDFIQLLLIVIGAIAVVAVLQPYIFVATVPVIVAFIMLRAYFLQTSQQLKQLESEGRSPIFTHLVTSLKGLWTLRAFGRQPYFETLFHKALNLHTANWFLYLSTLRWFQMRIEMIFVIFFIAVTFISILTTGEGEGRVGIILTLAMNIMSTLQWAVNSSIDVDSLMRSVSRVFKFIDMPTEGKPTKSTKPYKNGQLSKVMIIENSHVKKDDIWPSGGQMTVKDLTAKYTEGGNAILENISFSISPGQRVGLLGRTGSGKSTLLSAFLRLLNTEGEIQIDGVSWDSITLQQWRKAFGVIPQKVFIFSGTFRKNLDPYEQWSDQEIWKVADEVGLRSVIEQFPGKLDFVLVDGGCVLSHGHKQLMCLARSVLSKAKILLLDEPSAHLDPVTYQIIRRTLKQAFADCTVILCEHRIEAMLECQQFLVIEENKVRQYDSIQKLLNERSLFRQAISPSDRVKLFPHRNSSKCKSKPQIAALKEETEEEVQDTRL
`COc1cccc(CCNC(=O)[C@@H]2CC(=O)N(C)[C@@H](CC(C)C)C(=O)N(C)CC(=O)N[C@H](Cc3ccccc3)COc3cc4c(cc3C(=O)N2)OCO4)c1OC` (mixture of isomers) [Example 151, (7R,13S,17RS)-7-benzyl-N-(2,3-dimethoxyphenethyl)-13-isobutyl-11,14-dimethyl-9,12,15,19-tetraoxo-6,7,8,9,10,11,12,13,14,15,16,17,18,19-tetradecahydro-[1,3]dioxolo[4′,5′:4,5]benzo[1,2-p][1]oxa[4,7,10,14]tetraazacycloheptadecine-17-carboxamide] showed an EC50 of 759 nM. `COc1cc2c(cc1OC)C(=O)N[C@H](C(=O)NCCc1ccc3c(c1)CCO3)CC(=O)N(C)[C@@H](CC(C)C)C(=O)N(C)CC(=O)N[C@H](Cc1ccccc1)CO2` (mixture of isomers) [Example 152, (3R,9S,13RS)-3-benzyl-N-(2-(2,3-dihydrobenzofuran-5-yl)ethyl)-9-isobutyl-17,18-dimethoxy-7,10-dimethyl-5,8,11,15-tetraoxo-2,3,4,5,6,7,8,9,10,11,12,13,14,15-tetradecahydrobenzo[p][1]oxa[4,7,10,14]tetraazacycloheptadecine-13-carboxamide] gave an EC50 of 668 nM. With `COc1cc2c(cc1OC)C(=O)N[C@H](C(=O)NCCc1ccc3c(c1)OCO3)CC(=O)N(C)[C@@H](CC(C)C)C(=O)N(CCC(C)(C)OC)CC(=O)N[C@H](Cc1ccccc1)CO2` (mixture of isomers) [Example 156, (3R,9S,13RS)-N-(2-(benzo[d][1,3]dioxol-5-yl)ethyl)-3-benzyl-9-isobutyl-17,18-dimethoxy-7-(3-methoxy-3-methylbutyl)-10-methyl-5,8,11,15-tetraoxo-2,3,4,5,6,7,8,9,10,11,12,13,14,15-tetradecahydrobenzo[p][1]oxa[4,7,10,14]tetraazacycloheptadecine-13-carboxamide] the EC50 was 647 nM. Compound `CC(C)C[C@H]1C(=O)N(C[C@H]2CCCCO2)CC(=O)N[C@H](Cc2ccccc2)COc2ccc3ccccc3c2C(=O)N[C@H](C(=O)NCCc2ccc3c(c2)OCO3)CC(=O)N1C` (mixture of isomers) [Example 162, (3RS,7S,13R)-N-(2-(benzo[d][1,3]dioxol-5-yl)ethyl)-13-benzyl-7-isobutyl-6-methyl-1,5,8,11-tetraoxo-9-(((R)-tetrahydro-2H-pyran-2-yl)methyl)-1,2,3,4,5,6,7,8,9,10,11,12,13,14-tetradecahydronaphtho[1,2-p][1]oxa[4,7,10,14]tetraazacycloheptadecine-3-carboxamide] has an EC50 of 472 nM. Compound `COc1cccc(CCNC(=O)[C@@H]2CC(=O)N(C)[C@@H](CC(C)C)C(=O)N(C[C@H]3CCCCO3)CC(=O)N[C@H](Cc3ccccc3)COc3ccc4ccccc4c3C(=O)N2)c1` (mixture of isomers) [Example 164, (3RS,7S,13R)-13-benzyl-7-isobutyl-N-(3-methoxyphenethyl)-6-methyl-1,5,8,11-tetraoxo-9-(((R)-tetrahydro-2H-pyran-2-yl)methyl)-1,2,3,4,5,6,7,8,9,10,11,12,13,14-tetradecahydronaphtho[1,2-p][1]oxa[4,7,10,14]tetraazacycloheptadecine-3-carboxamide] has an EC50 of 519 nM. Compound `COc1cccc2c1C(=O)N[C@H](C(=O)NCCc1ccc3c(c1)OCO3)CC(=O)N(C)[C@@H](CC1CC1)C(=O)N(CCC1CCCCC1)CC(=O)N[C@H](Cc1ccccc1)CO2` (mixture of isomers) [Example 274, (3R,9S,13RS)-N-(2-(benzo[d][1,3]dioxol-5-yl)ethyl)-3-benzyl-7-(2-cyclohexylethyl)-9-(cyclopropylmethyl)-16-methoxy-10-methyl-5,8,11,15-tetraoxo-2,3,4,5,6,7,8,9,10,11,12,13,14,15-tetradecahydrobenzo[p][1]oxa[4,7,10,14]tetraazacycloheptadecine-13-carboxamide] has an EC50 of 288 nM. With `CN1C(=O)C[C@@H](C(=O)NCCc2ccc3c(c2)OCO3)NC(=O)c2c(ccc3ccccc23)OC[C@@H](Cc2ccccc2)NC(=O)CN(C[C@@H]2CCCCO2)C(=O)[C@@H]1CC1CCCC1` (mixture of isomers) [Example 284, (3RS,7S,13R)-N-(2-(benzo[d][1,3]dioxol-5-yl)ethyl)-13-benzyl-7-(cyclopentylmethyl)-6-methyl-1,5,8,11-tetraoxo-9-(((S)-tetrahydro-2H-pyran-2-yl)methyl)-1,2,3,4,5,6,7,8,9,10,11,12,13,14-tetradecahydronaphtho[1,2-p][1]oxa[4,7,10,14]tetraazacycloheptadecine-3-carboxamide] the EC50 was 337 nM. `CN1C(=O)C[C@@H](C(=O)NCCc2ccc3c(c2)OCO3)NC(=O)c2c(ccc3ccccc23)OC[C@@H](Cc2ccccc2)NC(=O)CN(C[C@@H]2CCCCO2)C(=O)[C@@H]1CC1CCCCC1` (mixture of isomers) [Example 285, (3RS,7S,13R)-N-(2-(benzo[d][1,3]dioxol-5-yl)ethyl)-13-benzyl-7-(cyclohexylmethyl)-6-methyl-1,5,8,11-tetraoxo-9-(((S)-tetrahydro-2H-pyran-2-yl)methyl)-1,2,3,4,5,6,7,8,9,10,11,12,13,14-tetradecahydronaphtho[1,2-p][1]oxa[4,7,10,14]tetraazacycloheptadecine-3-carboxamide] gave an EC50 of 239 nM. Compound `CN1C(=O)C[C@@H](C(=O)NCCc2ccc3c(c2)OCO3)NC(=O)c2c(ccc3ccccc23)OC[C@@H](Cc2ccccc2)NC(=O)CN(C[C@H]2CCCCO2)C(=O)[C@@H]1CC1CCCC1` (mixture of isomers) [Example 286, (3RS,7S,13R)-N-(2-(benzo[d][1,3]dioxol-5-yl)ethyl)-13-benzyl-7-(cyclopentylmethyl)-6-methyl-1,5,8,11-tetraoxo-9-(((R)-tetrahydro-2H-pyran-2-yl)methyl)-1,2,3,4,5,6,7,8,9,10,11,12,13,14-tetradecahydronaphtho[1,2-p][1]oxa[4,7,10,14]tetraazacycloheptadecine-3-carboxamide] has an EC50 of 177 nM. `CN1C(=O)C[C@@H](C(=O)NCCc2ccc3c(c2)OCO3)NC(=O)c2c(ccc3ccccc23)OC[C@@H](Cc2ccccc2)NC(=O)CN(CCC2CCCCC2)C(=O)[C@@H]1CC1CCCC1` (mixture of isomers) [Example 290, (3RS,7S,13R)-N-(2-(benzo[d][1,3]dioxol-5-yl)ethyl)-13-benzyl-9-(2-cyclohexylethyl)-7-(cyclopentylmethyl)-6-methyl-1,5,8,11-tetraoxo-1,2,3,4,5,6,7,8,9,10,11,12,13,14-tetradecahydronaphtho[1,2-p][1]oxa[4,7,10,14]tetraazacycloheptadecine-3-carboxamide] showed an EC50 of 188 nM. `CN1C(=O)C[C@@H](C(=O)NCCc2ccc3c(c2)OCO3)NC(=O)c2c(ccc3ccccc23)OC[C@@H](Cc2ccccc2)NC(=O)CN(CCC2CCCCC2)C(=O)[C@@H]1CC1CCC1` (mixture of isomers) [Example 292, (3RS,7S,13R)-N-(2-(benzo[d][1,3]dioxol-5-yl)ethyl)-13-benzyl-7-(cyclobutylmethyl)-9-(2-cyclohexylethyl)-6-methyl-1,5,8,11-tetraoxo-1,2,3,4,5,6,7,8,9,10,11,12,13,14-tetradecahydronaphtho[1,2-p][1]oxa[4,7,10,14]tetraazacycloheptadecine-3-carboxamide] gave an EC50 of 114 nM. In the case of `COc1cccc(CCNC(=O)[C@@H]2CC(=O)N(C)[C@@H](CC3CCCC3)C(=O)N(C[C@@H]3CCCCO3)CC(=O)N[C@H](Cc3ccccc3)COc3ccc4ccccc4c3C(=O)N2)c1` (mixture of isomers) [Example 293, (3RS,7S,13R)-13-benzyl-7-(cyclopentylmethyl)-N-(3-methoxyphenethyl)-6-methyl-1,5,8,11-tetraoxo-9-(((S)-tetrahydro-2H-pyran-2-yl)methyl)-1,2,3,4,5,6,7,8,9,10,11,12,13,14-tetradecahydronaphtho[1,2-p][1]oxa[4,7,10,14]tetraazacycloheptadecine-3-carboxamide], the EC50 is reported as 340 nM. For `COc1cccc(CCNC(=O)[C@@H]2CC(=O)N(C)[C@@H](CC3CCCC3)C(=O)N(C[C@@H]3CCCCO3)CC(=O)N[C@H](Cc3ccccc3)COc3ccc4ccccc4c3C(=O)N2)c1` (mixture of isomers) [Example 295, (3RS,7S,13R)-13-benzyl-7-(cyclopentylmethyl)-N-(3-methoxyphenethyl)-6-methyl-1,5,8,11-tetraoxo-9-(((R)-tetrahydro-2H-pyran-2-yl)methyl)-1,2,3,4,5,6,7,8,9,10,11,12,13,14-tetradecahydronaphtho[1,2-p][1]oxa[4,7,10,14]tetraazacycloheptadecine-3-carboxamide], the EC50 was 202 nM. `COc1cccc(CCNC(=O)[C@@H]2CC(=O)N(C)[C@@H](CC3CCCCC3)C(=O)N(C[C@H]3CCCCO3)CC(=O)N[C@H](Cc3ccccc3)COc3ccc4ccccc4c3C(=O)N2)c1` (mixture of isomers) [Example 296, (3RS,7S,13R)-13-benzyl-7-(cyclohexylmethyl)-N-(3-methoxyphenethyl)-6-methyl-1,5,8,11-tetraoxo-9-(((R)-tetrahydro-2H-pyran-2-yl)methyl)-1,2,3,4,5,6,7,8,9,10,11,12,13,14-tetradecahydronaphtho[1,2-p][1]oxa[4,7,10,14]tetraazacycloheptadecine-3-carboxamide] showed an EC50 of 158 nM. `COc1cccc(CCNC(=O)[C@@H]2CC(=O)N(C)[C@@H](CC3CCCC3)C(=O)N(CCC3CCCCC3)CC(=O)N[C@H](Cc3ccccc3)COc3ccc4ccccc4c3C(=O)N2)c1` (mixture of isomers) [Example 300, (3RS,7S,13R)-13-benzyl-9-(2-cyclohexylethyl)-7-(cyclopentylmethyl)-N-(3-methoxyphenethyl)-6-methyl-1,5,8,11-tetraoxo-1,2,3,4,5,6,7,8,9,10,11,12,13,14-tetradecahydronaphtho[1,2-p][1]oxa[4,7,10,14]tetraazacycloheptadecine-3-carboxamide] was tested, and the EC50 was 103 nM.

Same assay, conditions: U2OS, in relation to the Emax of the corrector lumacaftor (=100%); U2OS cell line, 16h compound incubation; arithmetic mean values
For `COc1cc2c(cc1OC)C(=O)N[C@H](C(=O)NCCc1ccc3c(c1)OCO3)CC(=O)N(C)[C@@H](CC(C)C)C(=O)N(CCC(C)(C)OC)CC(=O)N[C@H](Cc1ccccc1)CO2` (mixture of isomers) [Example 156, (3R,9S,13RS)-N-(2-(benzo[d][1,3]dioxol-5-yl)ethyl)-3-benzyl-9-isobutyl-17,18-dimethoxy-7-(3-methoxy-3-methylbutyl)-10-methyl-5,8,11,15-tetraoxo-2,3,4,5,6,7,8,9,10,11,12,13,14,15-tetradecahydrobenzo[p][1]oxa[4,7,10,14]tetraazacycloheptadecine-13-carboxamide], the Emax was 123%. In the case of `COc1cccc2c1C(=O)N[C@H](C(=O)NCCc1ccc3c(c1)OCO3)CC(=O)N(C)[C@@H](CC1CC1)C(=O)N(CCC1CCCCC1)CC(=O)N[C@H](Cc1ccccc1)CO2` (mixture of isomers) [Example 274, (3R,9S,13RS)-N-(2-(benzo[d][1,3]dioxol-5-yl)ethyl)-3-benzyl-7-(2-cyclohexylethyl)-9-(cyclopropylmethyl)-16-methoxy-10-methyl-5,8,11,15-tetraoxo-2,3,4,5,6,7,8,9,10,11,12,13,14,15-tetradecahydrobenzo[p][1]oxa[4,7,10,14]tetraazacycloheptadecine-13-carboxamide], the Emax is reported as 186%.
